Measurements as given in patent US20230339981A1, “KRAS G12D MODULATING COMPOUNDS” (priority 2022, published 2023).

Legend:
[1] = system: AsPC-1 (KRAS G12D) cells; test: 3D cell viability assay (spheroids, CellTiter-Glo 3D); type: cell-based; details: AsPC-1 cells, 3D spheroids, 4 days
Description: Example C. 3D Cell Viability Assay
Compounds were tested in a 384-well format for their ability to inhibit the viability of AsPC-1 (KRAS G12D) cells in 3D assays. On day 0, 1000 cells/well (80 μL volume per well) in DMEM with 10% FBS, and Penicillin-Streptomycin-Glutamine were plated in 384-well Ultra-Low Attachment Spheroid Microplates (Corning, Catalog #3830) on the BioTEK EL406 liquid dispenser with a 5 μL dispensing cassette (BioTek 7170011). The plates were incubated at 37° C., 5% CO2 for 3 days to allow spheroid formation. On day 3, compounds were serially diluted (1:3) in DMSO. The Biomek FX was used to add 400 nL of test molecule per well. The plates were incubated at 37° C., 5% CO2 for 4 days before addition of CellTiter-Glo 3D (Promega, Catalog #9683) reagent and measurement of luminescence signal. EC50 values were defined as the compound concentration that causes a 50% decrease in luminescence signal and were calculated using a sigmoidal dose-response model to generate curve fits.

[2] = system: GP2D (KRAS G12D) cells; test: 2D cell viability assay (CellTiter-Glo); type: cell-based; details: 4 days
Summary of the method: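 Viability was read by CellTiter-Glo after 4 days at 37 °C of 2D culture of KRAS G12D GP2D cells (1000/well, RPMI, 10% FBS) on pre-spotted threefold compound dilutions. EC50 was fitted with a sigmoidal dose-response model as the point of half-maximal luminescence loss.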

[3] = biological target: GDP-loaded KRAS G12D (Homo sapiens (Human), UniProt P01116, G12D); test: KRAS G12D (GDP) biochemical assay (TR-FRET probe displacement); type: binding; details: 2 hours
Summary of the method: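 TR-FRET probe displacement: 1:3 DMSO serial dilutions pre-incubated 30 min with GDP-bound KRAS G12D, followed by Eu-streptavidin/probe for 2 h at room temperature (Hepes pH 7.4, NaCl, MgCl2, Tween-20 buffer). IC50 defined as concentration halving TR-FRET ratio, from sigmoidal dose-response fit.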

Chain of GDP-loaded KRAS G12D (P01116-2 other isoform, or with tags, fused parts or gaps G12D): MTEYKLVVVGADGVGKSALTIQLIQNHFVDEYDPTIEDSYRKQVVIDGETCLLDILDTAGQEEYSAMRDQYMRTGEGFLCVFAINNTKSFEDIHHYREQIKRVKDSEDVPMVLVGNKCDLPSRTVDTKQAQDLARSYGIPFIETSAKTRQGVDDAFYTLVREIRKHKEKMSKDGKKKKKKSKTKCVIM

## C#Cc1c(F)ccc2cc(O)cc(-c3nc4c5c(nc(OC[C@@]67CCCN6[C@H](COC(=O)N(C)C)CC7)nc5c3F)N3C[C@H]5CC[C@H](N5)[C@H]3CO4)c12 [Example 39, ((3S,7aS)-7a-((((5aS,6S,9R)-2-(8-ethynyl-7-fluoro-3-hydroxynaphthalen-1-yl)-1-fluoro-5a,6,7,8,9,10-hexahydro-5H-4-oxa-3,10a,11,13,14-pentaaza-6,9-methanonaphtho[1,8-ab]heptalen-12-yl)oxy)methyl)hexahydro-1H-pyrrolizin-3-yl)methyl dimethylcarbamate]
[1]; Homo sapiens, ASPC1, 96 h
  EC50: 96 nM
[2]; GP2d, 96 h
  EC50: 48 nM
[3]
  IC50: 0.4 nM

## C#Cc1c(F)c(F)cc2cc(O)cc(-c3nc4c5c(nc(OC[C@@]67CCCN6C[C@H](F)C7)nc5c3F)N3C[C@H]5CC[C@H](N5)[C@H]3CO4)c12 [Example 30, 5-ethynyl-6,7-difluoro-4-((5aS,6S,9R)-1-fluoro-12-(((2R,7aS)-2-fluorotetrahydro-1H-pyrrolizin-7a(5H)-yl)methoxy)-5a,6,7,8,9,10-hexahydro-5H-4-oxa-3,10a,11,13,14-pentaaza-6,9-methanonaphtho[1,8-ab]heptalen-2-yl)naphthalen-2-ol]
[1]; Homo sapiens, ASPC1, 96 h
  EC50: 260 nM
[2]; GP2d, 96 h
  EC50: 11 nM
[3]
  IC50: 0.2 nM

## Oc1cc(-c2nc3c4c(nc(OC[C@@]56CCCN5C[C@H](F)C6)nc4c2F)N2C[C@H]4CC[C@H](N4)[C@H]2CO3)c2ccccc2c1 [Example 20, 4-((5aS,6S,9R)-1-fluoro-12-(((2R,7aS)-2-fluorotetrahydro-1H-pyrrolizin-7a(5H)-yl)methoxy)-5a,6,7,8,9,10-hexahydro-5H-4-oxa-3,10a,11,13,14-pentaaza-6,9-methanonaphtho[1,8-ab]heptalen-2-yl)naphthalen-2-ol]
[1]; Homo sapiens, ASPC1, 96 h
  EC50: > 1000 nM
[2]; GP2d, 96 h
  EC50: 210 nM
[3]
  IC50: 7 nM

## Oc1cc(-c2nc3c4c(nc(OC[C@@]56CCCN5C[C@H](F)C6)nc4c2F)N2C[C@H]4CC[C@H](N4)[C@H]2CO3)c2c(Cl)c(F)ccc2c1 [Example 9, 5-chloro-6-fluoro-4-((5aS,6S,9R)-1-fluoro-12-(((2R,7aS)-2-fluorotetrahydro-1H-pyrrolizin-7a(5H)-yl)methoxy)-5a,6,7,8,9,10-hexahydro-5H-4-oxa-3,10a,11,13,14-pentaaza-6,9-methanonaphtho[1,8-ab]heptalen-2-yl)naphthalen-2-ol]
[1]; Homo sapiens, ASPC1, 96 h
  EC50: 77 nM
[2]; GP2d, 96 h
  EC50: 20 nM
[3]
  IC50: 0.5 nM

## Oc1cc(-c2nc3c4c(nc(OC[C@@]56CCCN5C[C@H](F)C6)nc4c2F)N2C[C@H]4CC[C@H](N4)[C@H]2CC3)c2c(F)c(F)ccc2c1 [Example 27, 5,6-difluoro-4-((5aR,6S,9R)-1-fluoro-12-(((2R,7aS)-2-fluorotetrahydro-1H-pyrrolizin-7a(5H)-yl)methoxy)-4,5,5a,6,7,8,9,10-octahydro-3,10a,11,13,14-pentaaza-6,9-methanonaphtho[1,8-ab]heptalen-2-yl)naphthalen-2-ol]
[1]; Homo sapiens, ASPC1, 96 h
  EC50: 29 nM
[2]; GP2d, 96 h
  EC50: 4 nM
[3]
  IC50: 0.7 nM

## C#Cc1c(F)ccc2cc(O)cc(-c3nc4c5c(nc(OCC6(CN7CCC(OC(F)(F)F)CC7)CC6)nc5c3F)N3C[C@H]5CC[C@H](N5)[C@H]3CCC4)c12 [Example 161, 5-ethynyl-6-fluoro-4-((6aR,7S,10R)-1-fluoro-13-((1-((4-(trifluoromethoxy)piperidin-1-yl)methyl)cyclopropyl)methoxy)-5,6,6a,7,8,9,10,11-octahydro-4H-3,11a,12,14,15-pentaaza-7,10-methanocyclohepta[4,5]cycloocta[1,2,3-de]naphthalen-2-yl)naphthalen-2-ol]
[1]; Homo sapiens, ASPC1, 96 h
  EC50: 23 nM
[2]; GP2d, 96 h
  EC50: 0.3 nM
[3]
  IC50: 0.3 nM

## C#Cc1c(F)ccc2cc(O)cc(-c3nc4c5c(nc(OC[C@@]67CCCN6C[C@H](F)C7)nc5c3F)N3C[C@H]5CC[C@H](N5)C3C[C@H]4C)c12 (stereo in doubt) [Example 96, 5-ethynyl-6-fluoro-4-((4R,5aS,6S,9R)-1-fluoro-12-(((2R,7aS)-2-fluorotetrahydro-1H-pyrrolizin-7a(5H)-yl)methoxy)-4-methyl-4,5,5a,6,7,8,9,10-octahydro-3,10a,11,13,14-pentaaza-6,9-methanonaphtho[1,8-ab]heptalen-2-yl)naphthalen-2-ol]
[1]; Homo sapiens, ASPC1, 96 h
  EC50: 1.9 nM
[2]; GP2d, 96 h
  EC50: 0.5 nM
[3]
  IC50: 0.3 nM

## C#Cc1c(F)ccc2cc(O)cc(-c3nc4c5c(nc(OCC6(CN7CCCOCC7)CC6)nc5c3F)N3C[C@H]5CC[C@H](N5)[C@H]3CO4)c12 [Example 35, 4-((5aS,6S,9R)-12-((1-((1,4-oxazepan-4-yl)methyl)cyclopropyl)methoxy)-1-fluoro-5a,6,7,8,9,10-hexahydro-5H-4-oxa-3,10a,11,13,14-pentaaza-6,9-methanonaphtho[1,8-ab]heptalen-2-yl)-5-ethynyl-6-fluoronaphthalen-2-ol]
[1]; Homo sapiens, ASPC1, 96 h
  EC50: 17 nM
[2]; GP2d, 96 h
  EC50: 6 nM
[3]
  IC50: 0.3 nM

## C#Cc1c(F)ccc2cc(O)cc(-c3nc4c5c(nc(OC[C@@]67CCCN6[C@H](COC(C6CC6)C(F)(F)F)CC7)nc5c3F)N3C[C@H]5CC[C@H](N5)[C@H]3CC4)c12 (stereo partly drawn) [Example 147, 4-((5aR,6S,9R)-12-(((3S,7aS)-3-((1-cyclopropyl-2,2,2-trifluoroethoxy)methyl)tetrahydro-1H-pyrrolizin-7a(5H)-yl)methoxy)-1-fluoro-4,5,5a,6,7,8,9,1O-octahydro-3,10a,11,13,14-pentaaza-6,9-methanonaphtho[1,8-ab]heptalen-2-yl)-5-ethynyl-6-fluoronaphthalen-2-ol]
[1]
  EC50: 19 nM
[2]
  EC50: 1.3 nM
[3]
  IC50: < 0.1 nM

## C#Cc1c(F)ccc2cccc(-c3nc4c5c(nc(OC[C@@]67CCCN6C[C@H](F)C7)nc5c3F)N3C[C@H]5CC[C@H](N5)[C@@H]3CC4)c12 [Example 170, (5aS,6S,9R)-2-(8-ethynyl-7-fluoronaphthalen-1-yl)-1-fluoro-12-(((2R,7aS)-2-fluorotetrahydro-1H-pyrrolizin-7a(5H)-yl)methoxy)-4,5,5a,6,7,8,9,10-octahydro-3,10a,11,13,14-pentaaza-6,9-methanonaphtho[1,8-ab]heptalene]
[1]; Homo sapiens, ASPC1, 96 h
  EC50: > 1000 nM
[2]; GP2d, 96 h
  EC50: 100 nM
[3]
  IC50: 18.1 nM

## Oc1cc(-c2nc3c4c(nc(OC[C@@]56CCCN5C[C@H](F)C6)nc4c2F)N2C[C@H]4CC[C@H](N4)[C@H]2CC3)c2c(F)c(Cl)ccc2c1 [Example 40, 6-chloro-5-fluoro-4-((5aR,6S,9R)-1-fluoro-12-(((2R,7aS)-2-fluorotetrahydro-1H-pyrrolizin-7a(5H)-yl)methoxy)-4,5,5a,6,7,8,9,10-octahydro-3,10a,11,13,14-pentaaza-6,9-methanonaphtho[1,8-ab]heptalen-2-yl)naphthalen-2-ol]
[1]; Homo sapiens, ASPC1, 96 h
  EC50: 74 nM
[2]; GP2d, 96 h
  EC50: 19 nM
[3]
  IC50: 2 nM

## C#Cc1c(F)ccc2cc(O)cc(-c3nc4c5c(nc(OC[C@@]67CCCN6C[C@H](F)C7)nc5c3F)N3C[C@H]5CC[C@H](N5)[C@H]3CC4)c12 [Example 22, 5-ethynyl-6-fluoro-4-((5aR,6S,9R)-1-fluoro-12-(((2R,7aS)-2-fluorotetrahydro-1H-pyrrolizin-7a(5H)-yl)methoxy)-4,5,5a,6,7,8,9,10-octahydro-3,10a,11,13,14-pentaaza-6,9-methanonaphtho[1,8-ab]heptalen-2-yl)naphthalen-2-ol]
[1]; Homo sapiens, ASPC1, 96 h
  EC50: 2 nM
[2]; GP2d, 96 h
  EC50: 0.6 nM
[3]
  IC50: 0.1 nM

## Oc1cc(-c2nc3c4c(nc(OCC5(CN6CCC(OC(F)(F)F)CC6)CC5)nc4c2F)N2C[C@H]4CC[C@H](N4)[C@H]2CC3)c2c(OC(F)(F)F)c(F)ccc2c1 [Example 102, 6-fluoro-4-((5aR,6S,9R)-1-fluoro-12-((1-((4-(trifluoromethoxy)piperidin-1-yl)methyl)cyclopropyl)methoxy)-4,5,5a,6,7,8,9,10-octahydro-3,10a,11,13,14-pentaaza-6,9-methanonaphtho[1,8-ab]heptalen-2-yl)-5-(trifluoromethoxy)naphthalen-2-ol]
[1]; Homo sapiens, ASPC1, 96 h
  EC50: 680 nM
[2]; GP2d, 96 h
  EC50: 39.5 nM
[3]
  IC50: 3.3 nM

## C#Cc1c(F)ccc2cccc(-c3nc4c5c(nc(OC[C@@]67CCCN6C[C@H](F)C7)nc5c3F)N3C[C@H]5CC[C@H](N5)[C@H]3C[C@H]4F)c12 [Example 173, (4R,5aR,6S,9R)-2-(8-ethynyl-7-fluoronaphthalen-1-yl)-1,4-difluoro-12-(((2R,7aS)-2-fluorotetrahydro-1H-pyrrolizin-7a(5H)-yl)methoxy)-4,5,5a,6,7,8,9,10-octahydro-3,10a,11,13,14-pentaaza-6,9-methanonaphtho[1,8-ab]heptalene]
[1]; Homo sapiens, ASPC1, 96 h
  EC50: 100 nM
[2]; GP2d, 96 h
  EC50: 4.2 nM
[3]
  IC50: < 0.1 nM
